Laboratory results as given in patent US20100178249A1, “IMAGING MEDIUM COMPRISING LACTATE AND HYPERPOLARISED 13C-PYRUVATE” (priority 2006, published 2010).

Legend:
Format in all cases: cell-based
[1] = system: EL4 murine lymphoma cells; assay: Cell death by acridine orange and propidium iodide staining / fluorescence microscopy; settings: for morphological features of dying cells: cells treated with both the PARP inhibitor and etoposide, fluorescence microscopy
Protocol: (§1) EL4 murine lymphoma cells (10^8 cells) were treated with 15 μM etoposide (PCH Pharmachemie BV, Harleem), a compound which is known to induce cell death after 16 h exposure. A separate set of cells was treated for 16 hours with 15 μM etoposide plus 20 mM nicotinamide, a known PARP inhibitor. Cell death (apoptosis and necrosis) was confirmed by acridine orange and propidium iodide staining. The cells were washed 3 times with RPMI 1640 growth medium containing 10% FCS at 37° C. and to 2 ml of the etoposide- and etoposide/nicotinamide treated EL4 cell suspension 2 ml of the imaging medium according to Example 2 were added. The final cell suspension thus contained 30 mM hyperpolarised ^13C1-pyruvate and 37.5 mM lactate.

[2] = system: EL-4 murine lymphoma cells; assay: 31P-NMR measurements on acid-extracts of EL-4 cells induced to undergo cell death
Excerpt: Loss of NAD(H) can be explained by DNA-damage induced activation of the enzyme poly-ADP-ribose polymerase (PARP), which polyadenylates various proteins and uses NAD^+ as a substrate. There was also an increase in the resonances from the glycolytic intermediate, fructose-1,6-bisphosphate (FBP), which can be explained by inhibition of the glycolytic enzyme, glyceraldehyde 3-phosphate dehydrogenase (GAPDH), through loss of its coenzyme NAD(H). Inhibition of PARP activity with a competitive inhibitor (20 mM nicotinamide) or 3-aminobenzamide (10 mM) inhibited the loss of NAD(H) and the increase in FBP concentration observed in apoptotic cells.

[3] = system: EL4 murine lymphoma cells; assay: 13C-MR spectroscopy of hyperpolarised 13C-label flux between pyruvate and lactate in EL4 cells; settings: cells treated with both the PARP inhibitor and etoposide
Protocol: as §1
^13C-signal intensities from ^13C-pyruvate and ^13C-lactate in etoposide-treated EL4 cell suspensions as described in 3.1 were followed over a time period of 240 seconds from the time of addition of the imaging medium. […]
^13C-signal intensities from ^13C-pyruvate and ^13C-lactate in etoposide-treated and etoposide/nicotinamide treated EL4 cell suspensions as described in 3.1 were followed over a time period of 240 seconds from the time of addition of the imaging medium. […] The data were fit to a two-site exchange model based on the modified Bloch equations, and the rate constants for the forward and reverse exchange ^13C-fluxes were determined. […]

[4] = etoposide-treated cells compared to untreated control cells

| SMILES | morphological features of dying cells [1] | increase in FBP concentration observed in apoptotic cells ([2]; 3-aminobenzamide 10 mM) | loss of NAD(H) observed in apoptotic cells ([2]; 3-aminobenzamide 10 mM) | ability to transfer the hyperpolarised 13C-label between the pyruvate and lactate pools [3] | cell death (apoptosis and necrosis) ([1]; 15 μM etoposide, 16 h exposure) | intensity of the resonances from NAD(H) [2, 4] | resonances from fructose-1,6-bisphosphate (FBP) [2, 4] | increase in FBP concentration observed in apoptotic cells ([2]; 20 mM nicotinamide) | loss of NAD(H) observed in apoptotic cells ([2]; 20 mM nicotinamide) |
| --- | --- | --- | --- | --- | --- | --- | --- | --- | --- |
| NC(=O)c1cccc(N)c1 [3-aminobenzamide] | still exhibiting the common morphological features of dying cells | inhibited | inhibited | maintained | – | – | – | – | – |
| COc1cc([C@@H]2c3cc4c(cc3[C@@H](O[C@@H]3O[C@@H]5CO[C@@H](C)O[C@H]5[C@H](O)[C@H]3O)[C@H]3COC(=O)[C@H]23)OCO4)cc(OC)c1O [etoposide] | – | – | – | – | confirmed | decrease | increase | – | – |
| NC(=O)c1cccnc1 [nicotinamide] | still exhibiting the common morphological features of dying cells | – | – | maintained | – | – | – | inhibited | inhibited |
